Peptide text beside a SMILES is read from it.
Assays:
Plasma stability = assay type: in vitro ADME, CD-1 mouse
[1] = Metabolism of FC-12738 in SD rat urine, feces and bile; assay type: in vivo; details: SC 10 mg/kg FC-12738 single
[2] = Excretion study in SD rats following single subcutaneous administration; assay type: in vivo, SD rat; details: for Accumulative Dose Recovery: 0 h, n=3, mean
[3] = male, SD, rat, urine, sc, 10 mg/kg
[4] = male, Sprague-Dawley, rat, bile, sc, 10 mg/kg
[5] = male, Sprague-Dawley, rat, feces, sc, 10 mg/kg
[6] = male, Sprague-Dawley, rat, urine + feces, sc, 10 mg/kg
[7] = male, Sprague-Dawley, rat, urine, sc, 10 mg/kg

In the case of `CC(C)[C@@H](NC(=O)[C@H](N)Cc1ccc(O)cc1)C(=O)N[C@H](CC(=O)O)C(=O)N[C@H](CCCCN)C(=O)N[C@H](CCCNC(=N)N)C(=O)O` [FC-12738, (D-Tyr)-(D-Val)-(D-Asp)-(D-Lys)-(D-Arg)] (HELM PEPTIDE1{[dY].[dV].[dD].[dK].[dR]}$$$$V2.0), the remaining at 10 min, 2 μM (Plasma stability; CD-1, mouse, plasma) is reported as 104%, the remaining at 0.5 h, 2 μM (Plasma stability; CD-1, mouse, plasma) is reported as 100% and the remaining at 1 h, 2 μM (Plasma stability; CD-1, mouse, plasma) is reported as 111%. For the same molecule, the remaining at 2 h, 2 μM (Plasma stability; CD-1, mouse, plasma) was 100%, the half-life (Plasma stability; CD-1 mouse plasma, 2.00 μM, 37.0 °C, up to 120 min) was greater than 6.212 h and the “Relative MS abundance (%Total)” value ([1]; male SD rat bile) was 100.00%. The “Relative MS abundance (%Total)” value ([1]; male SD rat feces) was 100.00%, the “Relative MS abundance (%Total)” value ([1]; male SD rat urine) was 99.93% and the “Accumulative Dose Recovery” value ([2]; bile, male bile-duct-cannulated SD rats, SC 10 mg/kg single) was 0.00%. The “Accumulative Dose Recovery” value ([2]; feces, male intact SD rats, SC 10 mg/kg single) was 0.00%, the “Tolerability / adverse effects in-life” value ([2]; male SD rats, SC 10 mg/kg single, excretion study) was “No adverse effect was observed” and the dose excreted at 96 h [2, 3] was 86.4%. It also gave a dose excreted at 120 h [2, 3] of 86.6%, a dose excreted at 144 h [2, 3] of 86.7% and a dose excreted at 4 h [2, 4] of 0.284%. The dose excreted at 12 h [2, 4] was 0.314%, the dose excreted at 24 h [2, 4] was 0.324% and the dose excreted at 48 h [2, 4] was 0.331%. It also gave a dose excreted at 72 h [2, 4] of 0.336%, a dose excreted at 4 h [2, 5] of 0.00168% and a dose excreted at 8 h [2, 5] of 0.00239%. It also gave a dose excreted at 24 h [2, 5] of 1.74%, a dose excreted at 48 h [2, 5] of 2.08% and a dose excreted at 72 h [2, 5] of 2.14%. For the same molecule, the dose excreted at 96 h [2, 5] was 2.16%, the dose excreted at 120 h [2, 5] was 2.18% and the dose excreted at 144 h [2, 5] was 2.19%. The dose excreted at 168 h [2, 5] was 2.19%, the dose excreted at 4 h [2, 6] was 56.2% and the dose excreted at 8 h [2, 6] was 78.2%. It also gave a dose excreted at 24 h [2, 6] of 85.8%, a dose excreted at 48 h [2, 6] of 88.2% and a dose excreted at 72 h [2, 6] of 88.5%. For the same molecule, the dose excreted at 96 h [2, 6] was 88.6%, the dose excreted at 120 h [2, 6] was 88.7% and the dose excreted at 144 h [2, 6] was 88.9%. For the same molecule, the dose excreted at 168 h [2, 6] was 88.9%, the dose excreted at 4 h [2, 7] was 56.2% and the dose excreted at 8 h [2, 7] was 78.2%. The dose excreted at 24 h [2, 7] was 84%, the dose excreted at 48 h [2, 7] was 86.1% and the dose excreted at 72 h [2, 7] was 86.4%. The dose excreted at 168 h [2, 7] was 86.7%, the “Accumulative Dose Recovery” value ([2]; total (urine + feces), male intact SD rats, SC 10 mg/kg single) was 0.00% and the “Accumulative Dose Recovery” value ([2]; urine, male intact SD rats, SC 10 mg/kg single) was 0.00%.
